In brackets after ≈: the same amount, converted by molar mass.
Assays:
[1] = molecular target: T1, Oxysterols receptor LXR-beta (Homo sapiens, UniProt P55055); test: Inverse agonist activity of LXRbeta (unknown origin)
T1 sequence (P55055 whole entry): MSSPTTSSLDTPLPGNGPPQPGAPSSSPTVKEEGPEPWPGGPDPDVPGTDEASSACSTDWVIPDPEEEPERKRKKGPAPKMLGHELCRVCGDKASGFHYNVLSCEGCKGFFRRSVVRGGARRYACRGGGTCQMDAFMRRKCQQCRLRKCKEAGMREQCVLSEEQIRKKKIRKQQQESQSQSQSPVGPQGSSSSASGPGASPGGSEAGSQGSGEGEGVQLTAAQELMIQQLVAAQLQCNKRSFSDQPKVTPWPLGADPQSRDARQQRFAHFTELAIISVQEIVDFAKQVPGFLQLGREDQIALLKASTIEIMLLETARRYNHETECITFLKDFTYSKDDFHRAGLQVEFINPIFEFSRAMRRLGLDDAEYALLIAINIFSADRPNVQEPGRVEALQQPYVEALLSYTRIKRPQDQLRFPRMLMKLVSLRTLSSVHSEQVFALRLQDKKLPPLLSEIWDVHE

Cytochrome P450 2D6 = Cytochrome P450 2D6 (Homo sapiens, UniProt P10635); test: Inhibition of recombinant CYP2D6 (unknown origin); type: ADME
Cytochrome P450 2D6, sequence (P10635 whole entry): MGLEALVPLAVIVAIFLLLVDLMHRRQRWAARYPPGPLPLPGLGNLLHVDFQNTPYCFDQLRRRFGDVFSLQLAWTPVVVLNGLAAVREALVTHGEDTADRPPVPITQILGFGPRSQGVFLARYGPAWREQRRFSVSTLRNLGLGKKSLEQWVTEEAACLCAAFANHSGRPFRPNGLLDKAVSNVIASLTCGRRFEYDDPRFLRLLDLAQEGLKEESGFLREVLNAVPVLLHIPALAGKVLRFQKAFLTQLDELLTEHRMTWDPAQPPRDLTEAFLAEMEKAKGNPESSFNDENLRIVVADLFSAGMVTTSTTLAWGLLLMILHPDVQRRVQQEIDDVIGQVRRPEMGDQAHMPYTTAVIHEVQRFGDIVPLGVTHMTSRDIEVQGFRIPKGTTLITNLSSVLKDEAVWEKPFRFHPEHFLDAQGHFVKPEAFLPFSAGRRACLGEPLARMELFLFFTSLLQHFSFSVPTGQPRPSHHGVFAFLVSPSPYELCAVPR

[2] = Solubility of compound at pH 6.5; type: physicochemical; conditions: buffer
[3] = Clearance in BALB/c mouse at 2 mg/kg, iv; type: ADME, organism-based; conditions: in vivo
[4] = Oral bioavailability in rat at 4 mg/kg; type: ADME, organism-based; conditions: in vivo
[5] = Volume of distribution at steady state in cynomolgus monkey at 1 mg/kg, iv; type: ADME, organism-based, Macaca fascicularis; conditions: in vivo, read-out: Vdss
[6] = Half life in BALB/c mouse at 2 mg/kg, iv; type: ADME, organism-based; conditions: in vivo
[7] = Total AUC in rat at 4 mg/kg, po; type: ADME, organism-based; design: time AUCmax, route oral, dose 4 mg/kg; conditions: in vivo
[8] = Clearance in cynomolgus monkey at 1 mg/kg, iv; type: ADME, organism-based, Macaca fascicularis; conditions: in vivo
[9] = Total AUC in cynomolgus monkey at 2 mg/kg, po; type: ADME, organism-based, Macaca fascicularis; design: route oral, time AUCmax, dose 2 mg/kg; conditions: in vivo
[10] = Total AUC in cynomolgus monkey at 1 mg/kg, iv; type: ADME, organism-based, Macaca fascicularis; design: time AUCmax, route intravenous, dose 1 mg/kg; conditions: in vivo
[11] = Cmax in rat at 4 mg/kg, po; type: ADME, organism-based; design: route oral, dose 4 mg/kg; conditions: in vivo
[12] = Fraction unbound in mouse plasma; type: ADME, cell-free
[13] = molecular target: T2, Nuclear receptor ROR-alpha (Homo sapiens, UniProt P35398); test: Inhibition of GAL4-fused RORalpha (unknown origin)
T2 sequence (P35398 whole entry): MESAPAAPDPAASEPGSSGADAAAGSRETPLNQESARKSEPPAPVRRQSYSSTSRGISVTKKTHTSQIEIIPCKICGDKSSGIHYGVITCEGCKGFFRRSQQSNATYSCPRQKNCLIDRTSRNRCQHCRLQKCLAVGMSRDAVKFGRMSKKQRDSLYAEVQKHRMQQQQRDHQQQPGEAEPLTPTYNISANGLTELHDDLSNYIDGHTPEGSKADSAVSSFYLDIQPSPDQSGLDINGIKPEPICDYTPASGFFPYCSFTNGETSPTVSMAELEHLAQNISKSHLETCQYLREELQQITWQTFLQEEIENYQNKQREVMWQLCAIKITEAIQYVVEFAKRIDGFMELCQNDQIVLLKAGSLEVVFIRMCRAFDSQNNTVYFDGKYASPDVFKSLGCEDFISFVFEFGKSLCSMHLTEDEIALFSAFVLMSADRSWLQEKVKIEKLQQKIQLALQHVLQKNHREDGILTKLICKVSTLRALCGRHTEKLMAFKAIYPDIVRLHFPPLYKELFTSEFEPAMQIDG

[14] = Volume of distribution at steady state in rat at 2 mg/kg, iv; type: ADME, organism-based; conditions: in vivo, read-out: Vdss
[15] = Metabolic stability in rat liver microsomes assessed as half life; type: ADME, Microsome
[16] = Fraction unbound in human plasma; type: ADME, cell-free
[17] = Oral bioavailability in BALB/c mouse at 4 mg/kg; type: ADME, organism-based; conditions: in vivo
[18] = Total AUC in rat at 2 mg/kg, iv; type: ADME, organism-based; design: time AUCmax, route intravenous, dose 2 mg/kg; conditions: in vivo
[19] = Half life in dog at 1 mg/kg, iv; type: ADME, organism-based, Canis lupus familiaris; conditions: in vivo
[20] = Solubility of compound at pH 7.4; type: physicochemical; conditions: buffer
[21] = Metabolic stability in cynomolgous monkey liver microsomes assessed as half life; type: ADME, Macaca fascicularis, Microsome; conditions: cynomolgus monkey
[22] = Total AUC in BALB/c mouse at 4 mg/kg, po; type: ADME, organism-based; design: time AUCmax, route oral, dose 4 mg/kg; conditions: in vivo
Cytochrome P450 2C9 = Cytochrome P450 2C9 (Homo sapiens, UniProt P11712); test: Inhibition of recombinant CYP2C9 (unknown origin); type: ADME
Cytochrome P450 2C9, sequence (P11712 whole entry): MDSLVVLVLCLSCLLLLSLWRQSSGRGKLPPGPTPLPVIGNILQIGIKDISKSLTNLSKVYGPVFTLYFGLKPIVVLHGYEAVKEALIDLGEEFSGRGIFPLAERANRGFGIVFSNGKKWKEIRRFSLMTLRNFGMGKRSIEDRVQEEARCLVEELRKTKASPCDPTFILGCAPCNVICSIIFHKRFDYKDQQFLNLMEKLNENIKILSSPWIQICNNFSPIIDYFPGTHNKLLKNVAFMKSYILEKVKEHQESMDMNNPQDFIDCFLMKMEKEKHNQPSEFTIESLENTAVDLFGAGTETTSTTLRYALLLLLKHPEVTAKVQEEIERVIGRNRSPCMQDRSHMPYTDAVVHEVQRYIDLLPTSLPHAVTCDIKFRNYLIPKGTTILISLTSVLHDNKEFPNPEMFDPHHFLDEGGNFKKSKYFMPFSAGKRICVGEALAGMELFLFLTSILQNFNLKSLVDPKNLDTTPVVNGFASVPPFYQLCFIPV

[23] = molecular target: T3, Oxysterols receptor LXR-alpha (Homo sapiens, UniProt Q13133); test: Inverse agonist activity of LXRalpha (unknown origin)
T3 sequence (Q13133 whole entry): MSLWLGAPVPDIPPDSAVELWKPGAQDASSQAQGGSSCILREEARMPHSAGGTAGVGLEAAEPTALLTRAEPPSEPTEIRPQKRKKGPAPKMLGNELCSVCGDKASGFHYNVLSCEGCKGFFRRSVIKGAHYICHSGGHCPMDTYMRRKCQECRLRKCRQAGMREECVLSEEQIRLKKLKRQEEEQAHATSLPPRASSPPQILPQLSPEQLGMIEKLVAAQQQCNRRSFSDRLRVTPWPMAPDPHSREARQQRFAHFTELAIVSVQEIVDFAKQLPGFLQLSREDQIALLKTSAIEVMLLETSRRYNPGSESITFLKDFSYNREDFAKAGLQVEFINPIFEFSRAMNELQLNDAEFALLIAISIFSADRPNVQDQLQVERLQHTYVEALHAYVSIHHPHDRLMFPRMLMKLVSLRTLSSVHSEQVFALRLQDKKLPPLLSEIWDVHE

Cytochrome P450 3A4 = Cytochrome P450 3A4 (Homo sapiens, UniProt P08684); test: Inhibition of recombinant CYP3A4 (unknown origin); type: ADME
Cytochrome P450 3A4, sequence (P08684 whole entry): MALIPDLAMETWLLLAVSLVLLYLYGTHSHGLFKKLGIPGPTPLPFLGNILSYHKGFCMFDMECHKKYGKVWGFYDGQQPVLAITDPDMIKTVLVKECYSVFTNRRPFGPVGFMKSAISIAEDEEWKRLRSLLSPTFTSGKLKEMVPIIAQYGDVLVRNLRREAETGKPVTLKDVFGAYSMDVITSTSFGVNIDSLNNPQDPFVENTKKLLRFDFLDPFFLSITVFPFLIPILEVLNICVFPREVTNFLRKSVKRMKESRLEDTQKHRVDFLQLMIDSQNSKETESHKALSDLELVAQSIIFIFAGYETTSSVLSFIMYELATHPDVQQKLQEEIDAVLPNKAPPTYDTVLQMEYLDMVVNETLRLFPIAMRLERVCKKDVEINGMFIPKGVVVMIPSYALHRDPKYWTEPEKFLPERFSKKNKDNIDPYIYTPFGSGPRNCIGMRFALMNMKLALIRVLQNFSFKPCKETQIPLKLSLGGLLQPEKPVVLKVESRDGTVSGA

[24] = Half life in cynomolgus monkey at 1 mg/kg, iv; type: ADME, organism-based, Macaca fascicularis; conditions: in vivo
[25] = Metabolic stability in human liver microsomes assessed as half life; type: ADME, Microsome
[26] = Oral bioavailability in cynomolgus monkey at 2 mg/kg; type: ADME, organism-based, Macaca fascicularis; conditions: in vivo
[27] = Metabolic stability in dog liver microsomes assessed as half life; type: ADME, Canis lupus familiaris, Microsome
[28] = Volume of distribution at steady state in BALB/c mouse at 2 mg/kg, iv; type: ADME, organism-based; conditions: in vivo, read-out: Vdss
[29] = Half life in rat at 2 mg/kg, iv; type: ADME, organism-based; conditions: in vivo
[30] = Metabolic stability in mouse liver microsomes assessed as half life; type: ADME, Microsome
[31] = molecular target: Voltage-gated inwardly rectifying potassium channel KCNH2 (Homo sapiens, UniProt Q12809); test: Inhibition of human ERG by patch clamp assay
Voltage-gated inwardly rectifying potassium channel KCNH2, sequence (Q12809 whole entry): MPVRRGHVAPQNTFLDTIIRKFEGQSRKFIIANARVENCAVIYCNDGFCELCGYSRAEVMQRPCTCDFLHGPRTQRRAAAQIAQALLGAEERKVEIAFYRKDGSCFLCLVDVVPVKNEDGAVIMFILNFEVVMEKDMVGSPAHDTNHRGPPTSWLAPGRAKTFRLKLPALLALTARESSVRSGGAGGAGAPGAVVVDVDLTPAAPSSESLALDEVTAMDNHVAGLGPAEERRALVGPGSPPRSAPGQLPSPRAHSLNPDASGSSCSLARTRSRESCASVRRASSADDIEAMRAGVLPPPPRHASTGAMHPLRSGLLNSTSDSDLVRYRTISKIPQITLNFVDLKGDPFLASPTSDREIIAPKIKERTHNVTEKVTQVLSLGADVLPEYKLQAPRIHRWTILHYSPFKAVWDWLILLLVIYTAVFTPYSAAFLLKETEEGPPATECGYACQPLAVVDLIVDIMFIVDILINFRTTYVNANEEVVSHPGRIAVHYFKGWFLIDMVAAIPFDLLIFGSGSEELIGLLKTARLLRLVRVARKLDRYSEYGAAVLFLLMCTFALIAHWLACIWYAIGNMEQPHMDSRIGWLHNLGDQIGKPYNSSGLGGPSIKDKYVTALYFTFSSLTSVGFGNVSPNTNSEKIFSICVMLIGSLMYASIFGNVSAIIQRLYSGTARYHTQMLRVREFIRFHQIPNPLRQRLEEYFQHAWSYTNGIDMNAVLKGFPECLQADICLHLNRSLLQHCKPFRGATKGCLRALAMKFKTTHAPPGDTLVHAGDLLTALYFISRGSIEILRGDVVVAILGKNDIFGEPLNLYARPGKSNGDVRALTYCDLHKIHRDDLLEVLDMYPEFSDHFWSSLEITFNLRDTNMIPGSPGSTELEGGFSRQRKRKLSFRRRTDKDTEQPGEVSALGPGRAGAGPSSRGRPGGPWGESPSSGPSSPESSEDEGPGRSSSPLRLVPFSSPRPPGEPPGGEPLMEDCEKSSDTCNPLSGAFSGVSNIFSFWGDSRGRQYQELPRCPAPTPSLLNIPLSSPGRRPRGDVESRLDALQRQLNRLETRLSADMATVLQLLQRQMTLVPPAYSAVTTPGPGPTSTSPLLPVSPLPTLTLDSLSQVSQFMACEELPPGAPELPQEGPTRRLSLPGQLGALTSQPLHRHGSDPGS

[32] = Total AUC in BALB/c mouse at 2 mg/kg, iv; type: ADME, organism-based; design: route intravenous, time AUCmax, dose 2 mg/kg; conditions: in vivo
[33] = Volume of distribution at steady state in dog at 1 mg/kg, iv; type: ADME, organism-based, Canis lupus familiaris; conditions: in vivo, read-out: Vdss

C[C@H]1C[C@H](C(=O)O)CC[C@H]1C(=O)N1CC[C@@]2(S(=O)(=O)c3ccccc3)c3cc(F)c(C(F)(C(F)(F)F)C(F)(F)F)cc3CC[C@@H]12
EC50 [1]: > 7.5 µM | IC50 (Cytochrome P450 2D6): > 20 µM | solubility [2]: 350 µg/mL (≈ 524 µM) | clearance [3]: 2.5 mL/min/kg | bioavailability [4]: 100% | Vd [5]: 1.2 L/kg | half-life [6]: 462 min | AUC [7]: 44 µM·h | clearance [8]: 1.1 mL/min/kg | AUC [9]: 55 µM·h | AUC [10]: 23 µM·h | Cmax [11]: 4.1 µM | fraction unbound [12]: 0.016 | EC50 [13]: > 10 µM | Vd [14]: 1.3 L/kg | half-life [15]: > 120 min | fraction unbound [16]: 0.012 | bioavailability [17]: 98% | AUC [18]: 20 µM·h | half-life [19]: 1680 min | solubility [20]: 1600 µg/mL (≈ 2400 µM) | half-life [21]: > 120 min | AUC [22]: 39 µM·h | IC50 (Cytochrome P450 2C9): > 20 µM | EC50 [23]: > 12 µM | IC50 (Cytochrome P450 3A4): > 20 µM | half-life [24]: 1620 min | half-life [25]: > 120 min | bioavailability [26]: 100% | half-life [27]: > 120 min | Vd [28]: 1.6 L/kg | half-life [29]: 348 min | half-life [30]: > 120 min | IC50 [31]: 18 µM | AUC [32]: 20 µM·h | Vd [33]: 0.7 L/kg

Reference: ChEMBL document CHEMBL4699477, “Tricyclic sulfones as potent, selective and efficacious RORγt inverse agonists - Exploring C6 and C8 SAR using late-stage functionalization” (Bioorg Med Chem Lett, 2020)
